Test results taken from patent US20020111274A1, “1-alkyl-3-[1-(substituted phenyl) benzotriazol-6-yl] uracils” (BASF Aktiengesellschaft, priority 2000, published 2002).

Experiments:
Set-up in all cases: scale not given here
ABUTH Velvetleaf [1] = test: Postemergence herbicidal evaluation, ABUTH; assay type: in vivo, Abutilon theophrasti, Medic.; conditions: postemergence spray, rated about two-three weeks after treatment
Procedure, shortened: (§1)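 Postemergence spray, 40 psi nozzle, on ~2-week seedlings. Carrier: acetone/water 80/20, 1.0% methylated seed oil; dose ~0.006–0.400 kg/ha. Scored visually at 2–3 weeks.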

AMBEL Ragweed, Common [2] = test: Postemergence herbicidal evaluation, AMBEL; assay type: in vivo, Ambrosia artemisifolia, L.; conditions: postemergence spray, rated about two-three weeks after treatment
Procedure, shortened: as §1

CASOB Sicklepod [3] = test: Postemergence herbicidal evaluation, CASOB; assay type: in vivo, Cassia obtusifolia, L.; conditions: postemergence spray, rated about two-three weeks after treatment
Procedure, shortened: as §1

[4] = test system: CHEAL Lambsquarters, Common; test: Postemergence herbicidal evaluation, CHEAL; assay type: in vivo, Chenopodium album, L.; conditions: postemergence spray, rated about two-three weeks after treatment
Procedure, shortened: as §1

ECHOG Barnyardgrass [5] = test: Postemergence herbicidal evaluation, ECHOG; assay type: in vivo, Echinochloa crus-galli, (L.) Beau; conditions: postemergence spray, rated about two-three weeks after treatment
Procedure, shortened: as §1

GALAP Galium [6] = test: Postemergence herbicidal evaluation, GALAP; assay type: in vivo, Galium aparine; conditions: postemergence spray, rated about two-three weeks after treatment
Procedure, shortened: as §1

[7] = test system: IPOHE Morningglory, Ivyleaf; test: Postemergence herbicidal evaluation, IPOHE; assay type: in vivo, Ipomoea hederacea, (L.) Jacq.; conditions: postemergence spray, rated about two-three weeks after treatment
Procedure, shortened: as §1

SETVI Foxtail, Green [8] = test: Postemergence herbicidal evaluation, SETVI; assay type: in vivo, Setaria viridis, (L.) Beau; conditions: postemergence spray, rated about two-three weeks after treatment
Procedure, shortened: as §1

GLXMAW Soybean, Williams [9] = test: Postemergence herbicidal evaluation, GLXMAW; assay type: in vivo, Glycine max, (L.) Merr. cv Williams; conditions: postemergence spray, rated about two-three weeks after treatment
Procedure, shortened: as §1

[10] = test system: TRZAWR Wheat, Winter, cv Riband; test: Postemergence herbicidal evaluation, TRZAWR; assay type: in vivo, Triticum aestivum; conditions: postemergence spray, rated about two-three weeks after treatment
Procedure, shortened: as §1

ORYSAT Rice, Tebonnet [11] = test: Postemergence herbicidal evaluation, ORYSAT; assay type: in vivo, Oryza sativa, (L.); conditions: postemergence spray, rated about two-three weeks after treatment
Procedure, shortened: as §1

ZEAMX Corn, Field [12] = test: Postemergence herbicidal evaluation, ZEAMX; assay type: in vivo, Zea mays, L. (Sammel-Bezeichnung); conditions: postemergence spray, rated about two-three weeks after treatment
Procedure, shortened: as §1

ABUTH Velvetleaf [13] = test: Preemergence herbicidal evaluation, ABUTH; assay type: in vivo, Abutilon theophrasti, Medic.; conditions: preemergence
Procedure, shortened: (§2)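 Visual ratings were taken four to five weeks after application. Before that, cups sown with seed in potting soil received a spray of compound dissolved in aqueous acetone, equivalent to about 0.013 to 0.800 kg/ha, and stood on greenhouse benches under conventional care.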

AMBEL Ragweed, Common [14] = test: Preemergence herbicidal evaluation, AMBEL; assay type: in vivo, Ambrosia artemisifolia, L.; conditions: preemergence
Procedure, shortened: as §2

CASOB Sicklepod [15] = test: Preemergence herbicidal evaluation, CASOB; assay type: in vivo, Cassia obtusifolia, L.; conditions: preemergence
Procedure, shortened: as §2

[16] = test system: CHEAL Lambsquarters, Common; test: Preemergence herbicidal evaluation, CHEAL; assay type: in vivo, Chenopodium album, L.; conditions: preemergence
Procedure, shortened: as §2

ECHOG Barnyardgrass [17] = test: Preemergence herbicidal evaluation, ECHOG; assay type: in vivo, Echinochloa crus-galli, (L.) Beau; conditions: preemergence
Procedure, shortened: as §2

GALAP Galium [18] = test: Preemergence herbicidal evaluation, GALAP; assay type: in vivo, Galium aparine; conditions: preemergence
Procedure, shortened: as §2

[19] = test system: IPOHE Morningglory, Ivyleaf; test: Preemergence herbicidal evaluation, IPOHE; assay type: in vivo, Ipomoea hederacea, (L.) Jacq.; conditions: preemergence
Procedure, shortened: as §2

SETVI Foxtail, Green [20] = test: Preemergence herbicidal evaluation, SETVI; assay type: in vivo, Setaria viridis, (L.) Beau; conditions: preemergence
Procedure, shortened: as §2

GLXMAW Soybean, Williams [21] = test: Preemergence herbicidal evaluation, GLXMAW; assay type: in vivo, Glycine max, (L.) Merr. cv Williams; conditions: preemergence
Procedure, shortened: as §2

[22] = test system: TRZAWR Wheat, Winter, cv Riband; test: Preemergence herbicidal evaluation, TRZAWR; assay type: in vivo, Triticum aestivum; conditions: preemergence
Procedure, shortened: as §2

ORYSAT Rice, Tebonnet [23] = test: Preemergence herbicidal evaluation, ORYSAT; assay type: in vivo, Oryza sativa, (L.); conditions: preemergence
Procedure, shortened: as §2

ZEAMX Corn, Field [24] = test: Preemergence herbicidal evaluation, ZEAMX; assay type: in vivo, Zea mays, L. (Sammel-Bezeichnung); conditions: preemergence
Procedure, shortened: as §2

Compound: C=CCOc1ccc(C)cc1-n1nnc2cc(F)c(-n3c(=O)cc(C(F)(F)F)n(C)c3=O)cc21 [Example 42]
- Postemergence herbicidal rating ABUTH (ABUTH Velvetleaf [1]; 0.008 kg/ha): 7.0
- Postemergence herbicidal rating ABUTH (ABUTH Velvetleaf [1]; 0.016 kg/ha): 9.0
- Postemergence herbicidal rating ABUTH (ABUTH Velvetleaf [1]; 0.032 kg/ha): 9.0
- Postemergence herbicidal rating ABUTH (ABUTH Velvetleaf [1]; 0.062 kg/ha): 9.0
- Postemergence herbicidal rating AMBEL (AMBEL Ragweed, Common [2]; 0.008 kg/ha): 7.0
- Postemergence herbicidal rating AMBEL (AMBEL Ragweed, Common [2]; 0.016 kg/ha): 7.0
- Postemergence herbicidal rating AMBEL (AMBEL Ragweed, Common [2]; 0.032 kg/ha): 7.0
- Postemergence herbicidal rating AMBEL (AMBEL Ragweed, Common [2]; 0.062 kg/ha): 9.0
- Postemergence herbicidal rating CASOB (CASOB Sicklepod [3]; 0.008 kg/ha): 0.0
- Postemergence herbicidal rating CASOB (CASOB Sicklepod [3]; 0.016 kg/ha): 0.0
- Postemergence herbicidal rating CASOB (CASOB Sicklepod [3]; 0.032 kg/ha): 4.0
- Postemergence herbicidal rating CASOB (CASOB Sicklepod [3]; 0.062 kg/ha): 4.0
- Postemergence herbicidal rating CHEAL ([4]; 0.008 kg/ha): 2.0
- Postemergence herbicidal rating CHEAL ([4]; 0.016 kg/ha): 6.0
- Postemergence herbicidal rating CHEAL ([4]; 0.032 kg/ha): 7.0
- Postemergence herbicidal rating CHEAL ([4]; 0.062 kg/ha): 7.0
- Postemergence herbicidal rating ECHCG (ECHOG Barnyardgrass [5]; 0.008 kg/ha): 0.0
- Postemergence herbicidal rating ECHCG (ECHOG Barnyardgrass [5]; 0.016 kg/ha): 1.0
- Postemergence herbicidal rating ECHCG (ECHOG Barnyardgrass [5]; 0.032 kg/ha): 1.0
- Postemergence herbicidal rating ECHCG (ECHOG Barnyardgrass [5]; 0.062 kg/ha): 1.0
- Postemergence herbicidal rating GALAP (GALAP Galium [6]; 0.008 kg/ha): 1.0
- Postemergence herbicidal rating GALAP (GALAP Galium [6]; 0.016 kg/ha): 1.0
- Postemergence herbicidal rating GALAP (GALAP Galium [6]; 0.032 kg/ha): 1.0
- Postemergence herbicidal rating GALAP (GALAP Galium [6]; 0.062 kg/ha): 1.0
- Postemergence herbicidal rating IPOHE ([7]; 0.008 kg/ha): 9.0
- Postemergence herbicidal rating IPOHE ([7]; 0.016 kg/ha): 9.0
- Postemergence herbicidal rating IPOHE ([7]; 0.032 kg/ha): 9.0
- Postemergence herbicidal rating IPOHE ([7]; 0.062 kg/ha): 9.0
- Postemergence herbicidal rating SETVI (SETVI Foxtail, Green [8]; 0.008 kg/ha): 0.0
- Postemergence herbicidal rating SETVI (SETVI Foxtail, Green [8]; 0.016 kg/ha): 2.0
- Postemergence herbicidal rating SETVI (SETVI Foxtail, Green [8]; 0.032 kg/ha): 9.0
- Postemergence herbicidal rating SETVI (SETVI Foxtail, Green [8]; 0.062 kg/ha): 9.0
- Postemergence herbicidal rating GLXMAW (GLXMAW Soybean, Williams [9]; 0.008 kg/ha): 5.0
- Postemergence herbicidal rating GLXMAW (GLXMAW Soybean, Williams [9]; 0.016 kg/ha): 5.5
- Postemergence herbicidal rating GLXMAW (GLXMAW Soybean, Williams [9]; 0.032 kg/ha): 7.0
- Postemergence herbicidal rating GLXMAW (GLXMAW Soybean, Williams [9]; 0.062 kg/ha): 7.0
- Postemergence herbicidal rating TRZAWR ([10]; 0.008 kg/ha): 2.5
- Postemergence herbicidal rating TRZAWR ([10]; 0.016 kg/ha): 2.5
- Postemergence herbicidal rating TRZAWR ([10]; 0.032 kg/ha): 3.0
- Postemergence herbicidal rating TRZAWR ([10]; 0.062 kg/ha): 4.0
- Postemergence herbicidal rating ORYSAT (ORYSAT Rice, Tebonnet [11]; 0.008 kg/ha): 2.0
- Postemergence herbicidal rating ORYSAT (ORYSAT Rice, Tebonnet [11]; 0.016 kg/ha): 2.5
- Postemergence herbicidal rating ORYSAT (ORYSAT Rice, Tebonnet [11]; 0.032 kg/ha): 2.5
- Postemergence herbicidal rating ORYSAT (ORYSAT Rice, Tebonnet [11]; 0.062 kg/ha): 2.5
- Postemergence herbicidal rating ZEAMX (ZEAMX Corn, Field [12]; 0.008 kg/ha): 5.0
- Postemergence herbicidal rating ZEAMX (ZEAMX Corn, Field [12]; 0.016 kg/ha): 5.0
- Postemergence herbicidal rating ZEAMX (ZEAMX Corn, Field [12]; 0.032 kg/ha): 4.5
- Postemergence herbicidal rating ZEAMX (ZEAMX Corn, Field [12]; 0.062 kg/ha): 5.0
- ABUTH herbicidal rating (ABUTH Velvetleaf [13]; rate 0.016 kg/ha): 7.0
- ABUTH herbicidal rating (ABUTH Velvetleaf [13]; rate 0.032 kg/ha): 9.0
- ABUTH herbicidal rating (ABUTH Velvetleaf [13]; rate 0.062 kg/ha): 9.0
- ABUTH herbicidal rating (ABUTH Velvetleaf [13]; rate 0.125 kg/ha): 9.0
- AMBEL herbicidal rating (AMBEL Ragweed, Common [14]; rate 0.016 kg/ha): 0.0
- AMBEL herbicidal rating (AMBEL Ragweed, Common [14]; rate 0.032 kg/ha): 0.0
- AMBEL herbicidal rating (AMBEL Ragweed, Common [14]; rate 0.062 kg/ha): 1.0
- AMBEL herbicidal rating (AMBEL Ragweed, Common [14]; rate 0.125 kg/ha): 5.0
- CASOB herbicidal rating (CASOB Sicklepod [15]; rate 0.016 kg/ha): 0.0
- CASOB herbicidal rating (CASOB Sicklepod [15]; rate 0.032 kg/ha): 0.0
- CASOB herbicidal rating (CASOB Sicklepod [15]; rate 0.062 kg/ha): 0.0
- CASOB herbicidal rating (CASOB Sicklepod [15]; rate 0.125 kg/ha): 1.0
- CHEAL herbicidal rating ([16]; rate 0.016 kg/ha): 9.0
- CHEAL herbicidal rating ([16]; rate 0.032 kg/ha): 9.0
- CHEAL herbicidal rating ([16]; rate 0.062 kg/ha): 9.0
- CHEAL herbicidal rating ([16]; rate 0.125 kg/ha): 9.0
- ECHCG herbicidal rating (ECHOG Barnyardgrass [17]; rate 0.016 kg/ha): 1.0
- ECHCG herbicidal rating (ECHOG Barnyardgrass [17]; rate 0.032 kg/ha): 3.0
- ECHCG herbicidal rating (ECHOG Barnyardgrass [17]; rate 0.062 kg/ha): 3.0
- ECHCG herbicidal rating (ECHOG Barnyardgrass [17]; rate 0.125 kg/ha): 7.0
- GALAP herbicidal rating (GALAP Galium [18]; rate 0.016 kg/ha): 0.0
- GALAP herbicidal rating (GALAP Galium [18]; rate 0.032 kg/ha): 0.0
- GALAP herbicidal rating (GALAP Galium [18]; rate 0.062 kg/ha): 0.0
- GALAP herbicidal rating (GALAP Galium [18]; rate 0.125 kg/ha): 0.0
- IPOHE herbicidal rating ([19]; rate 0.016 kg/ha): 0.0
- IPOHE herbicidal rating ([19]; rate 0.032 kg/ha): 0.0
- IPOHE herbicidal rating ([19]; rate 0.062 kg/ha): 0.0
- IPOHE herbicidal rating ([19]; rate 0.125 kg/ha): 6.0
- SETVI herbicidal rating (SETVI Foxtail, Green [20]; rate 0.016 kg/ha): 3.0
- SETVI herbicidal rating (SETVI Foxtail, Green [20]; rate 0.032 kg/ha): 7.0
- SETVI herbicidal rating (SETVI Foxtail, Green [20]; rate 0.062 kg/ha): 9.0
- SETVI herbicidal rating (SETVI Foxtail, Green [20]; rate 0.125 kg/ha): 9.0
- GLXMAW herbicidal rating (GLXMAW Soybean, Williams [21]; rate 0.016 kg/ha): 0.0
- GLXMAW herbicidal rating (GLXMAW Soybean, Williams [21]; rate 0.032 kg/ha): 3.0
- GLXMAW herbicidal rating (GLXMAW Soybean, Williams [21]; rate 0.062 kg/ha): 3.0
- GLXMAW herbicidal rating (GLXMAW Soybean, Williams [21]; rate 0.125 kg/ha): 5.0
- TRZAWR herbicidal rating ([22]; rate 0.016 kg/ha): 0.0
- TRZAWR herbicidal rating ([22]; rate 0.032 kg/ha): 0.0
- TRZAWR herbicidal rating ([22]; rate 0.062 kg/ha): 0.0
- TRZAWR herbicidal rating ([22]; rate 0.125 kg/ha): 1.0
- ORYSAT herbicidal rating (ORYSAT Rice, Tebonnet [23]; rate 0.016 kg/ha): 0.0
- ORYSAT herbicidal rating (ORYSAT Rice, Tebonnet [23]; rate 0.032 kg/ha): 0.0
- ORYSAT herbicidal rating (ORYSAT Rice, Tebonnet [23]; rate 0.062 kg/ha): 1.0
- ORYSAT herbicidal rating (ORYSAT Rice, Tebonnet [23]; rate 0.125 kg/ha): 1.0
- ZEAMX herbicidal rating (ZEAMX Corn, Field [24]; rate 0.016 kg/ha): 0.0
- ZEAMX herbicidal rating (ZEAMX Corn, Field [24]; rate 0.032 kg/ha): 0.0
- ZEAMX herbicidal rating (ZEAMX Corn, Field [24]; rate 0.062 kg/ha): 1.0
- ZEAMX herbicidal rating (ZEAMX Corn, Field [24]; rate 0.125 kg/ha): 4.0
